The source of these data is PubChem BioAssay (NCI).

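Exposure lasted 48 hours, with cells grown in 96-well plates and compounds tested at five concentrations. The concentration for full growth arrest is given as TGI.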

Some test systems named below: OVCAR-5 ovarian; SK-OV-3 ovarian; A549 NSCLC; SK-MEL-2 melanoma; MOLT-4 leukemia; ACHN renal; T-47D breast; NCI-H226 lung; CCRF-CEM leukemia; UACC-257 melanoma; NCI-H522 lung.
What all share (assay): DTP human tumour cell line panel, 48 h

On to `C[C@]12CC(c3ccccc3O1)C(C(=O)Nc1nc(C34CC5CC(CC(C5)C3)C4)cs1)C(=O)N2` (stereo not given in full), for which the TGI in the experiment with OVCAR-5 ovarian, with SK-OV-3 ovarian, with A549 NSCLC, in the experiment with SK-MEL-2 melanoma, in the experiment on MOLT-4 leukemia and in the experiment with ACHN renal was above 100 µM in each case. Besides, the TGI with T-47D breast, in the experiment with NCI-H226 lung, in the experiment on CCRF-CEM leukemia and in the experiment with UACC-257 melanoma was above 100 µM in each case.
Consider `CCc1c(-c2ccc(OC)cc2)oc(OC)c(C)c1=O`, for which the TGI in the experiment on OVCAR-5 ovarian, with SK-OV-3 ovarian, with A549 NSCLC, in the experiment on SK-MEL-2 melanoma, with MOLT-4 leukemia and in the experiment on ACHN renal was above 100 µM in each case. Moreover, the TGI in the experiment on T-47D breast, in the experiment with CCRF-CEM leukemia, in the experiment with UACC-257 melanoma and in the experiment on NCI-H522 lung was above 100 µM throughout.
Take `Cc1ccc2nc(-c3ccc(C(C)(C)C)cc3)oc(=O)c2c1`: the concentration for total growth inhibition (TGI) is 89.5 µM in the experiment on OVCAR-5 ovarian; 62.1 µM in the experiment with SK-OV-3 ovarian; above 100 µM with A549 NSCLC; 56.7 µM in the experiment on SK-MEL-2 melanoma; 39.3 µM in the experiment on MOLT-4 leukemia; 36.6 µM in the experiment on ACHN renal. Moreover, the TGI with T-47D breast was 83.4 µM; with CCRF-CEM leukemia, 46.9 µM; in the experiment with UACC-257 melanoma it was 46.2 µM; with NCI-H522 lung it was 35 µM.
Turning to `CCOC(=O)c1c(SC(=O)c2ccc(OC)cc2)n(-c2ccccc2)c(=S)n(-c2ccccc2)c1=O`, the TGI in the experiment with OVCAR-5 ovarian was above 100 µM; in the experiment on SK-OV-3 ovarian, above 100 µM; in the experiment on A549 NSCLC, above 100 µM; with MOLT-4 leukemia, 64 µM; in the experiment on ACHN renal, above 100 µM; with T-47D breast, above 100 µM. In addition, the TGI in the experiment on NCI-H226 lung, in the experiment on CCRF-CEM leukemia, in the experiment with UACC-257 melanoma and in the experiment on NCI-H522 lung was above 100 µM each time.
In the case of `COc1ccc(NCC(=O)Nn2c(-c3ccccc3)nc3ccccc3c2=O)cc1`, the TGI with OVCAR-5 ovarian, in the experiment on SK-OV-3 ovarian, in the experiment on A549 NSCLC, in the experiment on MOLT-4 leukemia, in the experiment with ACHN renal and in the experiment with T-47D breast was above 100 µM in each case. Besides, the TGI is above 100 µM in the experiment on NCI-H226 lung, above 100 µM in the experiment on CCRF-CEM leukemia, above 100 µM with UACC-257 melanoma and above 10 µM in the experiment on NCI-H522 lung.
As to `NC(Cc1ccc2nc3c4ccccc4c(=O)cc-3oc2c1)C(=O)O` (stereo not given), the TGI with OVCAR-5 ovarian, in the experiment with SK-OV-3 ovarian, in the experiment on A549 NSCLC, with SK-MEL-2 melanoma, in the experiment on ACHN renal and in the experiment on T-47D breast was above 100 µM in each case. In addition, the total growth inhibition concentration (TGI) with CCRF-CEM leukemia and in the experiment with UACC-257 melanoma was above 100 µM each time.
As to `CC(=O)OCC1OC(n2c(Br)nc3c2c(=O)n(C)c(=O)n3C)C(OC(C)=O)C1OC(C)=O` (stereo not given), the TGI in the experiment on OVCAR-5 ovarian, in the experiment on SK-OV-3 ovarian, in the experiment on A549 NSCLC, with MOLT-4 leukemia, with ACHN renal and in the experiment with T-47D breast was above 100 µM each time. For the same compound, the TGI in the experiment on NCI-H226 lung, in the experiment with UACC-257 melanoma and with NCI-H522 lung was above 100 µM throughout.
For the compound `Cc1nc2cc(Nc3ccccc3C(=O)O)ccc2s1`, the TGI in the experiment with OVCAR-5 ovarian, with SK-OV-3 ovarian, in the experiment on A549 NSCLC, with SK-MEL-2 melanoma, in the experiment on MOLT-4 leukemia and in the experiment with ACHN renal was above 100 µM throughout. Also, the TGI in the experiment with CCRF-CEM leukemia and with NCI-H522 lung was above 100 µM throughout.
As to `CCn1c(CCl)nc2c1C(=O)c1ccccc1C2=O`, the total growth inhibition concentration (TGI) in the experiment on OVCAR-5 ovarian was 3.25 µM; in the experiment on SK-OV-3 ovarian, 2.38 µM; in the experiment with A549 NSCLC, above 100 µM; in the experiment on ACHN renal, 13.2 µM; with T-47D breast it was 4.21 µM; in the experiment on NCI-H226 lung, 0.473 µM. The compound also returned a concentration for total growth inhibition (TGI) in the experiment with UACC-257 melanoma of 3.36 µM.
For `C[C@H](CCC1SC1(C)C)C1CCC2(C)C3=C(CC[C@]12C)[C@@]1(C)CC[C@H](O)C(C)(C)C1CC3` (stereo not given in full), the TGI in the experiment on OVCAR-5 ovarian, in the experiment with SK-OV-3 ovarian, in the experiment with A549 NSCLC, with SK-MEL-2 melanoma, in the experiment with MOLT-4 leukemia and in the experiment with ACHN renal was above 100 µM throughout. In addition, the total growth inhibition concentration (TGI) with NCI-H226 lung, in the experiment with CCRF-CEM leukemia, in the experiment with UACC-257 melanoma and in the experiment with NCI-H522 lung was above 100 µM throughout.
Take `C#CCN(Cc1ccc2nc(-c3ccccc3)c(N)nc2c1)c1cc(OC)c(OC)c(OC)c1`: the TGI was above 100 µM in the experiment with OVCAR-5 ovarian; above 100 µM in the experiment with A549 NSCLC; 64.8 µM in the experiment with SK-MEL-2 melanoma; 35.7 µM in the experiment on MOLT-4 leukemia; 80.7 µM with ACHN renal; 52 µM with NCI-H226 lung. For the same compound, the TGI was 44.8 µM in the experiment with CCRF-CEM leukemia and 64.3 µM in the experiment with NCI-H522 lung.
Take `C/C(=C/CC[C@]1(CO)CC[C@]2(C)[C@H](CC[C@@H]3[C@@]4(C)CC[C@H](OC5OC(CO)C(O)C(O)C5OC5OC(CO)C(O)C(O)C5O)C(C)(C)[C@@H]4CC[C@]32C)[C@H]1O)CO` (stereo not given in full): the TGI with OVCAR-5 ovarian, in the experiment on SK-OV-3 ovarian, with A549 NSCLC, in the experiment with MOLT-4 leukemia, with ACHN renal and in the experiment on T-47D breast was above 100 µM each time. In addition, the TGI in the experiment with NCI-H226 lung, in the experiment on CCRF-CEM leukemia, in the experiment on UACC-257 melanoma and with NCI-H522 lung was above 100 µM in each case.
On to `COc1cc(-c2c3c(cc4c2OCO4)[C@@H](Nc2ccc(-c4ccc(-c5ccc(N[C@@H]6c7cc8c(cc7C(c7cc(OC)c(O)c(OC)c7)[C@H]7C(=O)OC[C@H]67)OCO8)cc5)cc4)cc2)[C@H]2COC(=O)[C@@H]2C3)cc(OC)c1O` (stereo not given in full), for which the TGI in the experiment with OVCAR-5 ovarian was determined as 17 µM; in the experiment with SK-OV-3 ovarian it was 10.1 µM; with A549 NSCLC it was 12.6 µM; in the experiment on ACHN renal it was 11.3 µM; in the experiment with T-47D breast it was 65.2 µM; in the experiment with NCI-H226 lung, 6.31 µM. Further, the total growth inhibition concentration (TGI) was above 100 µM in the experiment with CCRF-CEM leukemia and 80.4 µM with UACC-257 melanoma.
For the compound `O=C(O)c1nc2ccc(C(F)(F)F)cc2nc1Nc1ccc(F)cc1`, the total growth inhibition concentration (TGI) with OVCAR-5 ovarian is 64.3 µM; in the experiment with SK-MEL-2 melanoma, 34.8 µM; in the experiment on MOLT-4 leukemia, 28.9 µM; with ACHN renal it was above 100 µM; with NCI-H226 lung, 57 µM; in the experiment with UACC-257 melanoma it was 78.1 µM. Also, the TGI in the experiment on NCI-H522 lung turned out to be 24.7 µM.
